Here are results for 31 compounds from patent US8895585B2, “Nicotinamide derivative or salt thereof” (FUJIFILM Corporation, priority 2010, dated 2014).

Assay [1] deals with T1, glutathione S-transferase (GST)-fused full-length human Syk protein (Homo sapiens, UniProt P43405).
T1 construct: (GST)-fused full-length human Syk protein; GST (glutathione S-transferase); purchased Carna Biosciences
The assay is described as follows: Syk enzyme assay. The format is biochemical. To be noted: Syk enzyme assay, Test Example 1; read-out: IC50 of Syk-inhibitory activity. The gist of the method:
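IC50 values come from a time-resolved FRET readout (615 and 665 nm) of substrate phosphorylation, measured after an EDTA stop and 1 h antibody binding. The kinase reaction ran 40 min at room temperature with 27 μM ATP and 0.4 μM biotin-peptide, following a 15 min compound preincubation with baculovirus-made GST-full-length human Syk.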

The subject of the next assay is THP-1 cells. The assay is described as follows: TNFα generation assay. The assay is classed as cell-based, human. To be noted: Homo sapiens, THP-1, THP-1 cells; Table 22; read-out: IC50 in TNFα generation assay. The gist of the method:
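Secreted TNFα in supernatant quantified by ELISA or AlphaLISA after 7 h culture on human IgG-coated wells (10 μg/ml coating). Cells were IFN-γ-differentiated THP-1 (10 ng/ml, 2 days), exposed to compound for 30 min at room temperature before plating.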

Turning to `COc1cc(Nc2nc(N[C@H](c3ccc(F)cc3)[C@H](C)N)c(F)cc2C(N)=O)cc(OC)n1` [Example 006-557, 6-(((1R,2S)-2-amino-1-(4-fluorophenyl)propyl)amino)-2-((2,6-dimethoxypyridin-4-yl)amino)-5-fluoronicotinamide], the values for the IC50 (in assay [1]; in the assay on THP-1 cells) were under 10 nM and 130 to 200 nM, respectively.
As to `CCOc1nn(CC)c2ccc(Nc3nc(N[C@@H]4CCCC[C@@H]4N)c(F)cc3C(N)=O)cc12` [Example 006-590, 6-(((1R,2S)-2-aminocyclohexyl)amino)-2-((3-ethoxy-1-ethyl-1H-indazol-5-yl)amino)-5-fluoronicotinamide], the IC50 is under 10 nM in assay [1] and 130 to 200 nM in the assay with THP-1 cells.
As to `C[C@H](N)[C@@H](CC1CC1)Nc1nc(Nc2ccc3cnn(C4CC4)c3c2)c(C(N)=O)cc1F` [Example 006-480, 6-(((2R,3S)-3-amino-1-cyclopropylbutan-2-yl)amino)-2-((1-cyclopropyl-1H-indazol-6-yl)amino)-5-fluoronicotinamide], the IC50 in assay [1] was under 10 nM; in the assay with THP-1 cells, 130 to 200 nM.
Take `CC[C@@H](Nc1nc(Nc2ccc3c(c2)c(OC)nn3C)c(C(N)=O)cc1F)[C@H](C)N` [Example 006-588, 6-(((2S,3R)-2-aminopentan-3-yl)amino)-5-fluoro-2-((3-methoxy-1-methyl-1H-indazol-5-yl)amino)nicotinamide]: the figures for the IC50 (in assay [1]; in the assay with THP-1 cells) were under 10 nM and under 65 nM, respectively.
Consider `NC(=O)c1cc(F)c(N[C@@H]2CCCC[C@@H]2N)nc1Nc1cncc(C(=O)Nc2ccccc2)c1` [Example 004-011], for which the IC50 was 10 to 50 nM in assay [1] and 130 to 200 nM in the assay on THP-1 cells.
On the same counts, the results for `NC(=O)c1cc(F)c(NC2CCCCC2N)nc1Nc1ccnc(-c2ccc3cnccc3c2)c1` (centres unmarked) [Example 002-193] are under 10 nM and 130 to 200 nM.
Regarding `CCn1ncc2cc(Nc3nc(NC4CCCCC4N)c(F)cc3C(N)=O)ccc21` (centres unmarked) [Example 002-125], the figures for the IC50 (in assay [1]; in the assay with THP-1 cells) were under 10 nM and 65 to 130 nM, respectively.
On to `C[C@@H](N)[C@@H](C)Nc1nc(Nc2ccc3ncccc3c2)c(C(N)=O)cc1F` [Example 006-224, 6-(((2R,3R)-3-aminobutan-2-yl)amino)-5-fluoro-2-((quinolin-6-yl)amino)nicotinamide], for which the IC50 in assay [1] was 10 to 50 nM; in the assay on THP-1 cells, under 65 nM.
For the compound `NC(=O)c1cc(F)c(N[C@@H]2CCCC[C@@H]2N)nc1Nc1cncc(-c2ccccc2)c1` [Example 006-113, 6-(((1R,2S)-2-aminocyclohexyl)amino)-5-fluoro-2-((5-phenylpyridin-3-yl)amino)nicotinamide], the IC50 in assay [1] was under 10 nM; with THP-1 cells, under 65 nM.
Regarding `CC[C@@H](Nc1nc(Nc2cncc(-n3cccn3)c2)c(C(N)=O)cc1F)[C@H](C)N` [Example 006-218, 2-((5-(1H-pyrazol-1-yl)pyridin-3-yl)amino)-6-(((2S,3R)-2-aminopentan-3-yl)amino)-5-fluoronicotinamide], the IC50 was under 10 nM in assay [1] and 65 to 130 nM in the assay on THP-1 cells.
As for `Cc1cncc(Nc2nc(N[C@@H]3CCCC[C@@H]3N)c(F)cc2C(N)=O)c1` [Example 006-103, 6-(((1R,2S)-2-aminocyclohexyl)amino)-5-fluoro-2-((5-methylpyridin-3-yl)amino)nicotinamide], the IC50 in assay [1] was under 10 nM; in the assay with THP-1 cells it was under 65 nM.
Consider `CC(C)C[C@@H](Nc1nc(Nc2cncc(C3CC3)c2)c(C(N)=O)cc1F)[C@H](C)N` [Example 006-412, 6-(((2S,3R)-2-amino-5-methylhexan-3-yl)amino)-2-((5-cyclopropylpyridin-3-yl)amino)-5-fluoronicotinamide], for which the IC50 is under 10 nM in assay [1] and 130 to 200 nM in the assay on THP-1 cells.
As to `C[C@H](N)[C@@H](CC1CC1)Nc1nc(Nc2ccc3c(c2)c(C2CC2)nn3C)c(C(N)=O)cc1F` [Example 006-545, 6-(((2R,3S)-3-amino-1-cyclopropylbutan-2-yl)amino)-2-((3-cyclopropyl-1-methyl-1H-indazol-5-yl)amino)-5-fluoronicotinamide], the IC50 in assay [1] is under 10 nM; in the assay with THP-1 cells it was 65 to 130 nM.
Consider `CCC[C@@H](Nc1nc(Nc2cncc(-n3nccn3)c2)c(C(N)=O)cc1F)[C@H](C)N` [Example 006-298, 2-((5-(2H-1,2,3-triazol-2-yl)pyridin-3-yl)amino)-6-(((2S,3R)-2-aminohexan-3-yl)amino)-5-fluoronicotinamide], for which the figures for the IC50 (in assay [1]; with THP-1 cells) were under 10 nM and under 65 nM, respectively.
For the compound `Cc1ccc(Nc2nc(N[C@@H]3CCCC[C@@H]3N)c(F)cc2C(N)=O)cn1` [Example 006-104, 6-(((1R,2S)-2-aminocyclohexyl)amino)-5-fluoro-2-((6-methylpyridin-3-yl)amino)nicotinamide], the values for the IC50 (in assay [1]; in the assay on THP-1 cells) were under 10 nM and 65 to 130 nM, respectively.
For `NC(=O)c1cc(F)c(N[C@@H]2CCCC[C@@H]2N)nc1Nc1cnc2ncsc2c1` [Example 004-026], the figures for the IC50 (in assay [1]; with THP-1 cells) were under 10 nM and under 65 nM, respectively.
In the same order, the values of `CCC[C@H](CN)Nc1nc(Nc2ccc3ncccc3c2)c(C(N)=O)cc1F` [Example 006-161, (R)-6-((1-aminopentan-2-yl)amino)-5-fluoro-2-(quinolin-6-ylamino)nicotinamide] are under 10 nM and under 65 nM.
In the case of `COC[C@@H](Nc1nc(Nc2ccnc(OC)c2)c(C(N)=O)cc1F)[C@H](C)N` [Example 006-470, 6-(((2S,3S)-3-amino-1-methoxybutan-2-yl)amino)-5-fluoro-2-((2-methoxypyridin-4-yl)amino)nicotinamide], the values for the IC50 (in assay [1]; in the assay on THP-1 cells) were 10 to 50 nM and 65 to 130 nM, respectively.
Regarding `CCc1nn(C2CC2)c2ccc(Nc3nc(N[C@@H]4CCCC[C@@H]4N)c(F)cc3C(N)=O)cc12` [Example 006-478, 6-(((1R,2S)-2-aminocyclohexyl)amino)-2-((1-cyclopropyl-3-ethyl-1H-indazol-5-yl)amino)-5-fluoronicotinamide], the results for the IC50 (in assay [1]; with THP-1 cells) were under 10 nM and 65 to 130 nM, respectively.
For `Cc1cncc(Nc2nc(NC3CCCCC3N)c(Br)cc2C(N)=O)c1` (centres unmarked) [Example 035-007], the IC50 in assay [1] is under 10 nM; with THP-1 cells, 65 to 130 nM.
As to `NC(=O)c1cc(F)c(N[C@@H]2CCCC[C@@H]2N)nc1Nc1ccnc(-n2nccn2)c1` (relative stereo) [Example 006-125, 2-((2-(2H-1,2,3-triazol-2-yl)pyridin-4-yl)amino)-6-((cis-2-aminocyclohexyl)amino)-5-fluoronicotinamide], the IC50 was under 10 nM in assay [1] and 65 to 130 nM in the assay on THP-1 cells.
As for `Cc1ncc(Nc2nc(N[C@H](C3CC3)[C@H](C)N)c(F)cc2C(N)=O)cc1-n1nccn1` [Example 006-483, 6-(((1R,2S)-2-amino-1-cyclopropylpropyl)amino)-5-fluoro-2-((6-methyl-5-(2H-1,2,3-triazol-2-yl)pyridin-3-yl)amino)nicotinamide], the IC50 in assay [1] was under 10 nM; with THP-1 cells it was under 65 nM.
On the same counts, the results for `CCC[C@@H](Nc1nc(Nc2ccc3nccnc3c2)c(C(N)=O)cc1F)[C@H](C)N` [Example 006-240, 6-(((2S,3R)-2-aminohexan-3-yl)amino)-5-fluoro-2-((quinoxalin-6-yl)amino)nicotinamide] are under 10 nM and under 65 nM.
In the same order, the values of `NC(=O)c1cc(F)c(NC2CCCCC2N)nc1Nc1cccc2[nH]ncc12` (centres unmarked) [Example 002-025] are under 10 nM and 65 to 130 nM.
In the case of `COc1cc(Nc2nc(NC[C@H](C)N)c(F)cc2C(N)=O)cc(OC)c1` [Example 006-093, (S)-6-((2-aminopropyl)amino)-2-(3,5-dimethoxyphenylamino)-5-fluoronicotinamide], the IC50 was under 10 nM in assay [1] and under 65 nM in the assay with THP-1 cells.
In the same order, the values of `CCC[C@@H](Nc1nc(Nc2ccc3c(cnn3C)c2)c(C(N)=O)cc1F)[C@@H](N)CC` [Example 006-398, 6-(((3S,4R)-3-aminoheptan-4-yl)amino)-5-fluoro-2-((1-methyl-1H-indazol-5-yl)amino)nicotinamide] are under 10 nM and 65 to 130 nM.
For the compound `CC[C@H](N)[C@@H](C)Nc1nc(Nc2ccc3ncccc3c2)c(C(N)=O)cc1F` [Example 006-198, 6-(((2R,3S)-3-aminopentan-2-yl)amino)-5-fluoro-2-((quinolin-6-yl)amino)nicotinamide], the IC50 in assay [1] is under 10 nM; in the assay on THP-1 cells it was 65 to 130 nM.
In the same order, the values of `Cc1cccc(Nc2nc(NC3CCCCC3N)c(Cl)cc2C(N)=O)c1` (centres unmarked) [Example 035-005] are under 10 nM and 130 to 200 nM.
As to `COCCOc1cc(Nc2nc(N[C@H](CC3CC3)[C@H](C)N)c(F)cc2C(N)=O)ccn1` [Example 006-394, 6-(((2R,3S)-3-amino-1-cyclopropylbutan-2-yl)amino)-5-fluoro-2-((2-(2-methoxyethoxy)pyridin-4-yl)amino)nicotinamide], the IC50 in assay [1] is under 10 nM; with THP-1 cells it was 65 to 130 nM.
On the same counts, the results for `CC(C)c1nn(C)c2ccc(Nc3nc(N[C@@H]4CCCC[C@@H]4N)c(F)cc3C(N)=O)cc12` [Example 006-461, 6-(((1R,2S)-2-aminocyclohexyl)amino)-5-fluoro-2-((3-isopropyl-1-methyl-1H-indazol-5-yl)amino)nicotinamide] are under 10 nM and 65 to 130 nM.
In the case of `NC(=O)c1cc(F)c(N[C@@H]2CCCC[C@@H]2N)nc1Nc1cncc(-c2ccc3c(c2)OCCO3)c1` (relative stereo) [Example 004-056], the IC50 in assay [1] is under 10 nM; in the assay on THP-1 cells, 130 to 200 nM.
